Data from PubChem BioAssay (NCI).
Where “and” joins values, the source holds several entries; their conditions need not be identical. Equal entries are not always repeated.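 1) Cells in 96-well plates. 2) Compound, 48 h, 5 concentrations. 3) Linear interpolation between surrounding doses. 4) Unreached endpoint = highest concentration. Here, GI50 denotes the concentration required for 50% inhibition of growth. The concentration for full growth arrest is given as TGI.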

Assays:
Experiment in all cases: growth of human tumour cells (NCI), 48 h
TK-10 renal = test system: TK-10 renal
LOX IMVI melanoma = test system: LOX IMVI melanoma
SF-268 CNS = test system: SF-268 CNS
BT-549 breast = test system: BT-549 breast
MDA-MB-231 breast = test system: MDA-MB-231 breast
MDA-MB-435 = test system: MDA-MB-435
EKVX NSCLC = test system: EKVX NSCLC
SNB-75 CNS = test system: SNB-75 CNS
HCC-2998 colon = test system: HCC-2998 colon
UO-31 renal = test system: UO-31 renal

SMILES	GI50 (TK-10 renal)	TGI (TK-10 renal)	GI50 (LOX IMVI melanoma)	TGI (LOX IMVI melanoma)	GI50 (SF-268 CNS)	TGI (SF-268 CNS)	GI50 (BT-549 breast)	TGI (BT-549 breast)	GI50 (MDA-MB-231 breast)	TGI (MDA-MB-231 breast)	GI50 (MDA-MB-435)	TGI (MDA-MB-435)	GI50 (EKVX NSCLC)	TGI (EKVX NSCLC)	GI50 (SNB-75 CNS)	TGI (SNB-75 CNS)	GI50 (HCC-2998 colon)	TGI (HCC-2998 colon)	GI50 (UO-31 renal)	TGI (UO-31 renal)
Cc1oncc1C(=O)Nc1ccc(C(F)(F)F)cc1	> 100 µM	> 100 µM	19100 nM	> 100 µM	23 µM	> 100 µM	22.1 µM	> 100 µM	25900 nM	> 100 µM	46900 nM	> 100 µM	18.7 µM	> 100 µM	23500 nM	> 100 µM	64500 nM	> 100 µM	12600 nM	> 100 µM
O=C(O[C@H]1CN[C@H](C#Cc2cc3ncnc(Nc4ccc(Cc5ccccc5)cc4)c3s2)C1)N1CCOCC1	0.548 µM	4.97 µM	4000 nM	8.03 µM	3.8 µM	10.6 µM	4.74 µM	10.6 µM	4560 nM	14.2 µM	6330 nM	> 22.5 µM	1.94 µM	> 25 µM	1870 nM	> 19.4 µM	4200 nM	9.1 µM	3360 nM	> 25 µM
Nc1ccn(C2OC(CO[P+](=O)OC3C(CO[P+](=O)OC4C(CO[P+](=O)OC5C(CO[P+](=O)OC6C(CO[P+](=O)OC7C(CO[P+](=O)OC8C(CO[P+](=O)OC9C(CO[P+](=O)OC%10C(CO[P+](=O)OC%11C(CO)OC(n%12ccc(N)nc%12=O)C%11(F)F)OC(n%11ccc(N)nc%11=O)C%10(F)F)OC(n%10ccc(N)nc%10=O)C9(F)F)OC(n9ccc(N)nc9=O)C8(F)F)OC(n8ccc(N)nc8=O)C7(F)F)OC(n7ccc(N)nc7=O)C6(F)F)OC(n6ccc(N)nc6=O)C5(F)F)OC(n5ccc(N)nc5=O)C4(F)F)OC(n4ccc(N)nc4=O)C3(F)F)C(O)C2(F)F)c(=O)n1 (configuration not stated)	> 100 µM	> 100 µM		> 100 µM			0.426 µM		522 nM	> 100 µM		> 100 µM	> 100 µM	> 100 µM			339 nM	> 100 µM		
NC(=O)c1cccc(N)c1	> 100 µM	> 100 µM	> 100000 nM	> 100 µM	> 100 µM	> 100 µM	> 100 µM	> 100 µM	> 100000 nM	> 100 µM	> 100000 nM	> 100 µM	> 100 µM	> 100 µM	74600 nM	> 100 µM	> 100000 nM	> 100 µM	> 100000 nM	> 100 µM
COC(=O)c1c2c(c[n+]([O-])c1C)C(=O)C(NCc1ccccc1)=CC2=O	3.17 µM	7.07 µM	279 nM	1.32 µM	0.998 µM	3.94 µM	1.19 µM	2.54 µM	333 nM	2.27 µM	193 nM	0.376 µM	1.06 µM	2.56 µM	1760 nM	3.27 µM	604 nM	2 µM	1250 nM	2.58 µM
O=C1OCC2=C1C(c1ccccc1)c1cc3c(cc1N2CCO)CCC3 (configuration not stated)	1.52 µM	> 25 µM	176 nM	> 25 µM	0.0833 µM	1.51 µM	0.223 µM	> 25 µM	689 nM	> 25 µM	42.9 nM	0.129 µM	1.16 µM	> 25 µM	78.6 nM	> 25 µM	115 nM	0.941 µM	117 nM	> 20.1 µM
Nc1ccccc1C#Cc1ccccc1C#Cc1ccccc1N	4.17 µM	20 µM	7310 nM	20.9 µM	10.6 µM	37 µM	5.41 µM	24.7 µM	9040 nM	24.6 µM	1310 nM	4.39 µM	8.03 µM	32.8 µM	23700 nM	70.3 µM	14000 nM	41 µM	6340 nM	22.5 µM
COc1cccc(C2=NN(C(C)=O)C(c3cc(OC)c(OC)c(OC)c3)C2)c1 (configuration not stated)	25.8 µM	> 100 µM	7220 nM	> 100 µM	10.8 µM	> 100 µM	5.57 µM	> 100 µM	8820 nM	> 100 µM	224 nM	0.782 µM	4.96 µM	> 100 µM	1730 nM	> 100 µM	2260 nM	16 µM	7650 nM	> 100 µM
O=C(/C=C/c1ccccc1O)c1ccccc1	11.9 µM	24.7 µM	2090 nM	5.11 µM	6.34 µM	21.2 µM			12800 nM	29.9 µM	6020 nM	21.1 µM	11 µM	29.2 µM			17900 nM	32.6 µM	1680 nM	15.7 µM
O=[N+]([O-])c1ccccc1S(=O)(=O)c1ccccc1[N+](=O)[O-]		> 56.2 µM		> 100 µM		> 89.3 µM		> 100 µM		> 100 µM		> 100 µM		> 56.2 µM		43.1 µM		> 100 µM		> 100 µM
NC(Cc1cc(Br)c(O)c(Br)c1)C(=O)O (configuration not stated)		> 100 µM		> 100 µM		> 100 µM		> 100 µM		> 100 µM		> 100 µM		> 100 µM		> 100 µM				
COc1cc(C2=Nc3c/c(=C\c4c(O)[nH]c5ccc(Cl)cc45)ccc3=N2)cc(OC)c1OC	5.76 µM	17.4 µM	1740 nM	4.3 µM	1.93 µM	3.78 µM	2.51 µM	9.94 µM	1500 nM	6.26 µM	1730 nM	3.86 µM			1780 nM	10.6 µM	4440 nM	21.8 µM	2960 nM	16.1 µM
COC(=O)C1=C2C3=C(C(=O)c4ccccc4C3=O)N(Cc3ccccc3)C2(OC(C)=O)C=CC1=O (configuration not stated)		33.8 µM			2.86 µM	23.6 µM	6.9 µM	34.8 µM		8.05 µM	9520 nM	25.3 µM	23.6 µM	79.9 µM	40300 nM	> 100 µM	4670 nM	47.4 µM	18200 nM	> 100 µM
O=c1oc2c(Br)c(O)c(Br)cc2c2ccccc12		> 100 µM		68.9 µM		69 µM		75.3 µM		66.1 µM		> 100 µM		67.4 µM		78.9 µM		72.4 µM		
CCc1ccc(/C(C#N)=C/C=C/c2ccccc2)cc1	5.79 µM	> 100 µM	10500 nM	> 100 µM	19.3 µM	> 100 µM	7.86 µM	> 59.8 µM	5840 nM	> 76.7 µM	299 nM	1.16 µM					6650 nM	68.3 µM	19200 nM	> 100 µM
Oc1c(Cl)cc(C(c2cc(Cl)c(O)c(Cl)c2)C(c2cc(Cl)c(O)c(Cl)c2)c2cc(Cl)c(O)c(Cl)c2)cc1Cl	7.05 µM	21.5 µM			5.09 µM		3.23 µM	36.9 µM	6220 nM	26.4 µM	5640 nM	19.2 µM	3.35 µM	17.2 µM	3080 nM	7.87 µM	3790 nM	14.3 µM	573 nM	8.04 µM
O=[N+]([O-])c1ccc(Oc2cccnc2)c([N+](=O)[O-])c1			3160 nM	13.3 µM	4.2 µM	36.4 µM	3.73 µM	29 µM	2900 nM	11.6 µM			14.6 µM	32.2 µM	2760 nM	38.4 µM	6530 nM	41.7 µM	3070 nM	16.8 µM
O=C(c1ccc(F)c(F)c1Nc1ccc(I)cc1F)N1CC(O)([C@H]2CCCCN2)C1	1.4 µM	15.3 µM	1050 nM	5.49 µM	9.83 µM	23.4 µM	10.9 µM	23.9 µM	579 nM	5.26 µM	161 nM	15.8 µM			5960 nM	20.5 µM	223 nM	2.62 µM	1420 nM	13.9 µM
COc1ccc(Nc2nc(NCc3ccccc3)c3ccccc3n2)cc1	8.45 µM	22 µM	1990 nM	3.92 µM	8.85 µM	25.1 µM	4.57 µM	18.2 µM	4300 nM	16.9 µM	1920 nM	3.85 µM			7980 nM	22.4 µM	2900 nM	7.6 µM	5090 nM	19.8 µM
O=C(O)c1ccc([N+](=O)[O-])c(P(=O)(O)O)c1		> 100 µM		> 100 µM				> 100 µM		> 100 µM		> 100 µM		> 100 µM						> 100 µM
CCCCN(CCCC)c1cc(C(=O)CCCCCN)c2ccccc2n1	1.94 µM	3.5 µM	1690 nM	3.13 µM	3.38 µM	12.7 µM	8.57 µM	23.4 µM	1620 nM	3.09 µM			4.99 µM	23.1 µM	1710 nM	3.21 µM	1760 nM	3.21 µM	1850 nM	3.68 µM
O=S(=O)(c1ccc2c(c1)C(=NO)c1cc(S(=O)(=O)N3CCCCC3)ccc1-2)N1CCCCC1	0.669 µM and 0.177 µM	> 1 µM and 0.319 µM			0.215 µM and 0.12 µM	0.44 µM and 0.318 µM	0.173 µM and 0.179 µM	0.332 µM and 0.326 µM	179 nM and 56.2 nM	0.36 µM and 0.112 µM	173 nM and 102 nM	0.317 µM and 0.244 µM	0.575 µM and 0.174 µM	> 1 µM and 0.323 µM	147 nM and 58.7 nM	0.287 µM and 0.151 µM	298 nM and 134 nM	> 1 µM and 0.273 µM	160 nM and 46.7 nM	0.319 µM and 0.11 µM
COc1cc(-c2nn(C)nc2-c2cc3ccccc3s2)cc(OC)c1OC	0.578 µM	> 100 µM	169 nM	> 100 µM	0.638 µM	> 100 µM			1600 nM	> 100 µM	25.7 nM	0.0995 µM	0.466 µM	> 100 µM			407 nM	> 100 µM	744 nM	> 100 µM
O=C(Nc1cccc(-n2cc(-c3ccncc3)c(-c3cc(O)cc(Cl)c3)n2)c1)Nc1ccc(Cl)c(Cl)c1					3.22 µM	32.8 µM	2.06 µM	5.22 µM	1010 nM	7.7 µM					1380 nM	4.82 µM	2930 nM	8.99 µM	1910 nM	6.51 µM
C=CC[Se]C(=O)c1ccccc1OC(C)=O			1860 nM	3.78 µM	2.49 µM	6.5 µM	1.66 µM	3.2 µM			1720 nM	3.35 µM			1380 nM	2.72 µM	1360 nM	2.88 µM	1480 nM	2.81 µM
O=C1OCC2=C1C(c1cccc([N+](=O)[O-])c1)c1cc3c(cc1N2CCO)CCC3 (configuration not stated)	6.42 µM	> 50 µM	286 nM	8.29 µM	0.295 µM	22.9 µM	0.177 µM	5.32 µM	271 nM	> 19.3 µM			0.28 µM	> 50 µM	51.3 nM	0.363 µM	188 nM	9.58 µM	269 nM	> 34.3 µM
COc1ccc(S(=O)(=O)Nc2cc(/C=C\c3cc(OC)c(OC)c(OC)c3)cc(OC)c2OC)cc1OC	10.3 µM	> 100 µM	472 nM	> 100 µM	20.8 µM	> 100 µM	0.664 µM	90.1 µM	2430 nM	> 100 µM			3.6 µM	> 100 µM	404 nM	> 100 µM	1830 nM	> 100 µM	1590 nM	> 100 µM
Clc1cccc(Cn2cc(Cc3cn(Cc4cccc(Cl)c4)c4ccccc34)c3ccccc32)c1	92.6 µM	> 100 µM	33300 nM	> 100 µM	> 100 µM	> 100 µM	> 100 µM	> 100 µM	52000 nM	> 100 µM	> 100000 nM	> 100 µM			> 100000 nM	> 100 µM	> 100000 nM	> 100 µM	10500 nM	> 100 µM
